Data reported in patent publication US11612606B2, “8-aminoisoquinoline compounds and uses thereof” (priority 2018, dated 2023).
Counter-ions that a name gives are not always drawn.

target: HPK full length, T165E S171E (Homo sapiens (Human), UniProt Q92918, S171E/T165E); experiment: HPK1-FL HTRF enzymatic assay ("HTRF"); type: biochemical; conditions: ATP 1 mM, read-out: HPK1 Ki
Outline: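 Full-length HPK1 (T165E/S171E) was preincubated 30 min with compound, then reacted 60 min with biotin-SLP-76 and 1 mM ATP. Phospho-SLP-76 was detected by HTRF (Eu-anti-pSLP76 antibody, SA-XL665) after a further 60 min.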

Sequence of HPK full length, T165E S171E (Q92918 whole entry T165E/S171E, looked up): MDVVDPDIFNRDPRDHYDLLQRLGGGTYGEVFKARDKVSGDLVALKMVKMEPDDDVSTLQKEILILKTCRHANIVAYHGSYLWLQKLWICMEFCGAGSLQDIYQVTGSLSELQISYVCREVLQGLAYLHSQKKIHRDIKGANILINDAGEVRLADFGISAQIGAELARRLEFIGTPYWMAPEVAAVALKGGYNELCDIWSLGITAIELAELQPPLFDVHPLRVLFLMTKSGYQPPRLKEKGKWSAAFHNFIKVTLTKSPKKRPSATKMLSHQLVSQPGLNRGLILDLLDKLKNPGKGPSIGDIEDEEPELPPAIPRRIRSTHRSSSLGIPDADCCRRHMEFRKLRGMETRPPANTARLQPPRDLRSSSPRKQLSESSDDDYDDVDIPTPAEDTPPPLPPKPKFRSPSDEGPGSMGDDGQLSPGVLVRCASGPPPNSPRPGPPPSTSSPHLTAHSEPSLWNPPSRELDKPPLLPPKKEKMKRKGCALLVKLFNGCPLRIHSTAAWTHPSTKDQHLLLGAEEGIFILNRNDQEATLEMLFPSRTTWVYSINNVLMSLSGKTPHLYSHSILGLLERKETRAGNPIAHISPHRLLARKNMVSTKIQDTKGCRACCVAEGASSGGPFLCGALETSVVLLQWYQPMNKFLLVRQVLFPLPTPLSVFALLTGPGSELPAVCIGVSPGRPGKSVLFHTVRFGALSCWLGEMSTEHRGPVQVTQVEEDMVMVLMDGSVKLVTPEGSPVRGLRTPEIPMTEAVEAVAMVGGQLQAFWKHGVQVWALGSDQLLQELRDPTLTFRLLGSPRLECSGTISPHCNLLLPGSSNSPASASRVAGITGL

Point of comparison: `Cc1c(-c2cc3cc(NC(=O)O[C@H]4CCN([C@H]5CCOC5)C[C@H]4F)ncc3c(N)c2F)cnc2c1NCCO2` [Compound 569c, (3R,4S)-3-fluoro-1-((S)-tetrahydrofuran-3-yl)piperidin-4-yl (8-amino-7-fluoro-6-(8-methyl-2,3-dihydro-1H-pyrido[2,3-b][1,4]oxazin-7-yl)isoquinolin-3-yl)carbamate], Ki 0.029 nM. Against it:
- Cc1c(-c2cc3cc(NC(=O)OC4CC(O)(C5CC5)C4)ncc3c(N)c2F)cnc2c1NCCO2 (stereo not shown) [Compound 551a, (3-Cyclopropyl-3-hydroxy-cyclobutyl) N-[8-amino-7-fluoro-6-(8-methyl-2,3-dihydro-1H-pyrido[2,3-b][1,4]oxazin-7-yl)-3-isoquinolyl]carbamate] — lower, < 0.013 nM
- Cc1c(-c2cc3cc(NC(=O)OC4CN(S(C)(=O)=O)C4)ncc3c(N)c2F)cnc2c1NCCO2 [Compound 552, 1-(Methylsulfonyl)azetidin-3-yl (8-amino-7-fluoro-6-(8-methyl-2,3-dihydro-1H-pyrido[2,3-b][1,4]oxazin-7-yl)isoquinolin-3-yl)carbamate] — 2.1-fold lower, 0.014 nM
- Cc1c(-c2cc3cc(NC(=O)O[C@H]4C[C@@H](O)C4)ncc3c(N)c2F)cnc2c1NCCC2 [Compound 553a, (1s,3s)-3-hydroxycyclobutyl (8-amino-7-fluoro-6-(4-methyl-5,6,7,8-tetrahydro-1,5-naphthyridin-3-yl)isoquinolin-3-yl)carbamate] — lower, < 0.013 nM
- Cc1c(-c2cc3cc(NC(=O)O[C@]4(C)C[C@H](O)C4)ncc3c(N)c2F)cnc2c1NCCO2 [Compound 554a, (1s,3s)-3-Hydroxy-1-methylcyclobutyl (8-amino-7-fluoro-6-(8-methyl-2,3-dihydro-1H-pyrido[2,3-b][1,4]oxazin-7-yl)isoquinolin-3-yl)carbamate] — 8.7-fold higher, 0.253 nM
- Cc1c(-c2cc(N)c3cnc(NC(=O)O[C@H]4C[C@@H](C#N)C4)cc3c2)cnc2c1NCCO2 [Compound 557a, (1s,3s)-3-Cyanocyclobutyl (8-amino-6-(8-methyl-2,3-dihydro-1H-pyrido[2,3-b][1,4]oxazin-7-yl)isoquinolin-3-yl)carbamate hydrochloride] — lower, < 0.013 nM
- Cc1c(-c2cc3cc(NC(=O)O[C@H]4CC[C@@H]4C)ncc3c(N)c2F)cnc2c1NCCO2 [Compound 559b, [(1S,2S)-2-methylcyclobutyl]N-[8-amino-7-fluoro-6-(8-methyl-2,3-dihydro-1H-pyrido[2,3-b][1,4]oxazin-7-yl)-3-isoquinolyl]carbamate] — 4.8-fold higher, 0.14 nM
- Cc1c(-c2cc3cc(NC(=O)O[C@H]4CC[C@H]4C)ncc3c(N)c2F)cnc2c1NCCO2 [Compound 559d, [(1S,2R)-2-methylcyclobutyl]N-[8-amino-7-fluoro-6-(8-methyl-2,3-dihydro-1H-pyrido[2,3-b][1,4]oxazin-7-yl)-3-isoquinolyl]carbamate] — lower, < 0.013 nM
- Cc1c(-c2cc3cc(NC(=O)OC4CC(O)C4)ncc3c(N)c2F)cnc2c1NC[C@H](C)C2 (stereo partly drawn) [Compound 560b, (1s,3s)-3-Hydroxycyclobutyl (8-amino-6-((R)-4,7-dimethyl-5,6,7,8-tetrahydro-1,5-naphthyridin-3-yl)-7-fluoroisoquinolin-3-yl)carbamate] — 11-fold higher, 0.32 nM
- Cc1c(-c2cc3cc(NC(=O)O[C@@H]4CCOC4)ncc3c(N)c2F)cnc2c1C(C#N)CCO2 (stereo partly drawn) [Compound 562a, (R)-Tetrahydrofuran-3-yl (8-amino-6-(4-cyano-5-methyl-3,4-dihydro-2H-pyrano[2,3-b]pyridin-6-yl)-7-fluoroisoquinolin-3-yl)carbamate] — 2.3-fold higher, 0.068 nM
- Cc1c(-c2cc3cc(NC(=O)O[C@@H]4CCN([C@H]5CCOC5)C[C@@H]4F)ncc3c(N)c2F)cnc2c1NCCO2 [Compound 569a, (3S,4R)-3-Fluoro-1-((S)-tetrahydrofuran-3-yl)piperidin-4-yl (8-amino-7-fluoro-6-(8-methyl-2,3-dihydro-1H-pyrido[2,3-b][1,4]oxazin-7-yl)isoquinolin-3-yl)carbamate] — 9.6-fold higher, 0.277 nM
- Cc1c(-c2cc3cc(NC(=O)O[C@@H]4CCN([C@@H]5CCOC5)C[C@@H]4F)ncc3c(N)c2F)cnc2c1NCCO2 [Compound 569b, (3S,4R)-3-fluoro-1-((R)-tetrahydrofuran-3-yl)piperidin-4-yl (8-amino-7-fluoro-6-(8-methyl-2,3-dihydro-1H-pyrido[2,3-b][1,4]oxazin-7-yl)isoquinolin-3-yl)carbamate] — 8.8-fold higher, 0.254 nM
- Cc1c(-c2cc3cc(NC(=O)O[C@H]4C[C@H](CO)C4)ncc3c(N)c2F)cnc2c1NCCO2 [Compound 571a, (1r,3r)-3-(Hydroxymethyl)cyclobutyl (8-amino-7-fluoro-6-(8-methyl-2,3-dihydro-1H-pyrido[2,3-b][1,4]oxazin-7-yl)isoquinolin-3-yl)carbamate] — 2.1-fold lower, 0.014 nM
- Cc1c(-c2cc3cc(NC(=O)O[C@H]4C[C@@H](CO)C4)ncc3c(N)c2F)cnc2c1NCCO2 [Compound 571b, (1s,3s)-3-(Hydroxymethyl)cyclobutyl (8-amino-7-fluoro-6-(8-methyl-2,3-dihydro-1H-pyrido[2,3-b][1,4]oxazin-7-yl)isoquinolin-3-yl)carbamate] — lower, < 0.013 nM
- Cc1c(-c2cc3cc(NC(=O)O[C@H]4C[C@@H](S(C)(=O)=O)C4)ncc3c(N)c2F)cnc2c1NCCO2 [Compound 572a, (1s,3s)-3-(Methylsulfonyl)cyclobutyl (8-amino-7-fluoro-6-(8-methyl-2,3-dihydro-1H-pyrido[2,3-b][1,4]oxazin-7-yl)isoquinolin-3-yl)carbamate] — lower, < 0.013 nM
- Cc1c(-c2cc3cc(NC(=O)O[C@H]4C[C@@H](C(C)(C)O)C4)ncc3c(N)c2F)cnc2c1NCCO2 [Compound 574b, (1s,3s)-3-(2-hydroxypropan-2-yl)cyclobutyl (8-amino-7-fluoro-6-(8-methyl-2,3-dihydro-1H-pyrido[2,3-b][1,4]oxazin-7-yl)isoquinolin-3-yl)carbamate] — lower, < 0.013 nM
- Cc1c(-c2cc3cc(NC(=O)OC4C5COCC4CN(C4COC4)C5)ncc3c(N)c2F)cnc2c1NCCO2 [Compound 575a, (1R,5S,9s)-7-(Oxetan-3-yl)-3-oxa-7-azabicyclo[3.3.1]nonan-9-yl (8-amino-7-fluoro-6-(8-methyl-2,3-dihydro-1H-pyrido[2,3-b][1,4]oxazin-7-yl)isoquinolin-3-yl)carbamate] — lower, < 0.013 nM
- CO[C@H]1C[C@H](OC(=O)Nc2cc3cc(-c4cnc5c(c4C)NCCO5)c(F)c(N)c3cn2)C1 [Compound 576a, (1r, 3r)-3-Methoxycyclobutyl (8-amino-7-fluoro-6-(8-methyl-2,3-dihydro-1H-pyrido[2,3-b][1,4]oxazin-7-yl)isoquinolin-3-yl)carbamate] — lower, < 0.013 nM
- Cc1c(-c2cc3cc(NC(=O)O[C@H]4C[C@@H](C(F)F)C4)ncc3c(N)c2F)cnc2c1NCCO2 [Compound 577a, (1s,3s)-3-(difluoromethyl)cyclobutyl (8-amino-7-fluoro-6-(8-methyl-2,3-dihydro-1H-pyrido[2,3-b][1,4]oxazin-7-yl)isoquinolin-3-yl)carbamate] — 1.9-fold lower, 0.015 nM
- Cc1c(-c2cc3cc(NC(=O)O[C@H]4C[C@H](C(F)F)C4)ncc3c(N)c2F)cnc2c1NCCO2 [Compound 577b, (1r,3r)-3-(difluoromethyl)cyclobutyl (8-amino-7-fluoro-6-(8-methyl-2,3-dihydro-1H-pyrido[2,3-b][1,4]oxazin-7-yl)isoquinolin-3-yl)carbamate] — lower, < 0.013 nM
- Cc1c(-c2cc3cc(NC(=O)OC4CCS(=O)(=O)CC4)ncc3c(N)c2F)cnc2c1NCCC2 [Compound 579, 1,1-Dioxidotetrahydro-2H-thiopyran-4-yl (8-amino-7-fluoro-6-(4-methyl-5,6,7,8-tetrahydro-1,5-naphthyridin-3-yl)isoquinolin-3-yl)carbamate] — 29-fold higher, 0.85 nM
- Cc1c(-c2cc3cc(NC(=O)OC4CC5(CCNCC5)C4)ncc3c(N)c2F)cnc2c1NCCO2 [Compound 580, 7-Azaspiro[3.5]nonan-2-yl (8-amino-7-fluoro-6-(8-methyl-2,3-dihydro-1H-pyrido[2,3-b][1,4]oxazin-7-yl)isoquinolin-3-yl)carbamate] — lower, < 0.013 nM
- Cc1c(-c2cc3cc(NC(=O)SC4CCOCC4)ncc3c(N)c2F)cnc2c1NCCO2 [Compound 601, S-Tetrahydropyran-4-yl N-[8-amino-7-fluoro-6-(8-methyl-2,3-dihydro-1H-pyrido[2,3-b][1,4]oxazin-7-yl)-3-isoquinolyl]carbamothioate] — lower, < 0.013 nM
- Cc1c(-c2cc3cc(NC(=O)NC4CC4)ncc3c(N)c2F)cnc2c1NCCO2 [Compound 702, 1-(8-Amino-7-fluoro-6-(8-methyl-2,3-dihydro-1H-pyrido[2,3-b][1,4]oxazin-7-yl)isoquinolin-3-yl)-3-cyclopropylurea] — lower, < 0.013 nM
- CNC(=O)Nc1cc2cc(-c3cnc4c(c3C)NCCO4)c(F)c(N)c2cn1 [Compound 704, 1-(8-Amino-7-fluoro-6-(8-methyl-2,3-dihydro-1H-pyrido[2,3-b][1,4]oxazin-7-yl)isoquinolin-3-yl)-3-methylurea] — lower, < 0.013 nM

same assay, conditions: HPK1 Ki, ATP 1 mM

Point of comparison: `Cc1c(-c2cc3cc(NC(=O)O[C@@H]4CO[C@H]5COC[C@H]54)ncc3c(N)c2F)cnc2c1NCCO2` [Compound 563a, (3S,3aR,6aR)-Hexahydrofuro[3,4-b]furan-3-yl (8-amino-7-fluoro-6-(8-methyl-2,3-dihydro-1H-pyrido[2,3-b][1,4]oxazin-7-yl)isoquinolin-3-yl)carbamate], Ki 0.219 nM. Against it:
- Cc1c(-c2cc3cc(NC(=O)O[C@H]4C[C@@H](N5CCOCC5)C4)ncc3c(N)c2F)cnc2c1NCCO2 [Compound 550b, (1s,3s)-3-Morpholinocyclobutyl (8-amino-7-fluoro-6-(8-methyl-2,3-dihydro-1H-pyrido[2,3-b][1,4]oxazin-7-yl)isoquinolin-3-yl)carbamate] — 4.1-fold lower, 0.054 nM
- Cc1c(-c2cc3cc(NC(=O)O[C@H]4CCN([C@@H]5CCOC5)C[C@H]4F)ncc3c(N)c2F)cnc2c1NCCO2 [Compound 569d, (3R,4S)-3-fluoro-1-((R)-tetrahydrofuran-3-yl)piperidin-4-yl (8-amino-7-fluoro-6-(8-methyl-2,3-dihydro-1H-pyrido[2,3-b][1,4]oxazin-7-yl)isoquinolin-3-yl)carbamate] — 7.1-fold lower, 0.031 nM
